{
  "source": "paper PMC8835884",
  "about": "(2022)",
  "key": {"[1]": {"test_system": "TQ3/Cy3-fl (RNA, riboswitch, aminoallyl-U conjugated to TQ3 at 24; Cy3-C at 55) GGGAAGAUAUAAUCCUAAUGAUAUGGUUUGGGAGUUUCUACCAAGAGCCUUAAACUCUUGAUUAUCUUCUCUGUCGCUUUAUCCCAAAUUUUAUAAAGAGAAGACUCAUGAAU", "assay": "Cy3-TQ3 FRET quenching titration, steady-state fluorescence", "conditions": "Mg2+ not stated"}, "[2]": {"test_system": "TQ3/Cy3-apt (RNA, riboswitch, aminoallyl-U conjugated to TQ3 at 24; Cy3-C at 55) GGGAAGAUAUAAUCCUAAUGAUAUGGUUUGGGAGUUUCUACCAAGAGCCUUAAACUCUUGAUUAUCUUCCC", "assay": "Cy3-TQ3 FRET quenching titration, steady-state fluorescence, sigmoidal fit", "conditions": "100 mM KCl, 2 mM MgCl2; 10 mM HEPES, pH 7.5; 0.4 μM RNA; apparent"}, "[3]": {"test_system": "TQ3/Cy3-fl (RNA, riboswitch, aminoallyl-U conjugated to TQ3 at 24; Cy3-C at 55) GGGAAGAUAUAAUCCUAAUGAUAUGGUUUGGGAGUUUCUACCAAGAGCCUUAAACUCUUGAUUAUCUUCUCUGUCGCUUUAUCCCAAAUUUUAUAAAGAGAAGACUCAUGAAU", "assay": "Cy3-TQ3 FRET quenching titration, steady-state fluorescence, sigmoidal fit", "conditions": "100 mM KCl, 2 mM MgCl2; 10 mM HEPES, pH 7.5; 0.4 μM RNA; apparent"}},
  "data": [
    {"compound": "Nc1nc2[nH]cnc2c(=O)[nH]1", "values": [
      {"measurement": "binding", "setting": "[1]; tested up to 1 mM guanine", "result": "no"}
    ]},
    {"compound": "Nc1ncnc2[nH]cnc12", "values": [
      {"measurement": "KD", "setting": "[2]", "result": "61.833 ± 0.621", "unit": "µM"},
      {"measurement": "KD", "setting": "[3]", "result": "15.826 ± 0.287", "unit": "µM"}
    ]},
    {"compound": "Nc1ncnc2c1ncn2[C@@H]1O[C@H](COP(=O)(O)OP(=O)(O)OP(=O)(O)O)[C@@H](O)[C@H]1O", "values": [
      {"measurement": "binding", "setting": "[1]; tested up to 1 mM ATP", "result": "no"}
    ]}
  ]
}
